Laboratory results from patent publication US20230000795A1, “LIPID CRYSTALLINE COMPOSITIONS WITH ENHANCED STABILITY FOR TOPICAL DELIVERY OF ACTIVE AGENT COMBINATIONS” (Ankh Life Sciences Limited, priority 2021, published 2023).
≈ marks a conversion by molar mass, not a printed value. Where “and” joins values, the source holds several entries; their conditions need not be identical. Identical values can stand only once. Like-named read-outs stand apart in the source and are kept apart here. Values belong to the compound of their own block, whether it stands above or below them.

Columns and labels:
[1] = test system: actinic keratosis cell line HaCaT; experiment: Growth inhibition of EGF-stimulated HaCaT cells (Cell Titer Glo); type: cell-based; conditions: for IC50: Homo sapiens
Description: To investigate the mechanisms by which these pathways are affected, GZ17-6.02 was administered to the actinic keratosis cell line HT297.T in vitro and changes in signalling within various pathways were measured 6 hours post administration with cell death measured 24 hours post administration. […] 5-Fluorouracil was tested at a concentration of 50 uM.
Materials and Methods: A Cell Titer Glo assay was used to determine the sensitivity of EGF-stimulated HaCaT cells to GZ21T. Annexin-V assay was utilized to assess the pro-apoptotic effects of GZ21T on HaCaT cells, and the mechanism was clarified by western blot. AK lesions were induced in Female SKH-1 mice by exposing them to UVB radiation (500 J/m2) five times weekly for ten weeks. Mice were subsequently treated with 0.25 grams topical GZ21T or control cream five days per week. At the studies endpoint, lesional samples were collected from control and GZ21T treated mice and were subjected to RNA-sequencing and reverse phase protein arrays (RPPA). Gene set enrichment analysis (GSEA) was performed using the KEGG database as reference to identify the top pathways altered by GZ21T treatment. Gene set variation analysis (GSVA) was used to assess GZ21T's effect on pathways previously implicated in the pathogenesis of AK. Enrichment analysis was also performed on proteins showing decreased expression following GZ21T treatment using Enrichr with the KEGG database as reference.

[2] = In vitro permeation test through pig skin, infinite dose (150 mg, 230 mg/cm^2), Bronaugh flow-through cells; conditions: for Cumulative amount permeated: after application of 6% GZ17-6.02 cream batch, mean±SD
Description: Epidermal accumulation is significant due to the desired site of drug action on keratinocytes in actinic keratosis.
Three formulations were used in this experiment.
PBS buffer with 2% (w/w) Brij will be used as receptor solution.
The equipment used is Bronaugh diffusion cells. Parameters of the experiment is described in tables below. Analyses were performed according to RP-HPLC assay with additional calibration standard solutions. […] For the amount found in the tissue values both with and without cell 11 and 12 are reported.
After the in vitro experiment was terminated each membrane was washed, dismounted and prepared according to the following procedure: • 1. Wash the membrane six times with 0.5 ml PBS buffer and collect the PBS in the wash fraction tubes. • 2. Dismount the cells and gently clean the membranes with PBS moisture tops. Collect the tops in the wash fraction tubes. • 3. Gently separate […] from dermis by peeling the membrane and collect in a test tube. • 4. Cut out the cell flange (the unexposed skin) with a 10 mm punch and collect the material in a test tube. • 5. Cut the dermis into thin strips with a scalpel and collect the material in a test tube 1.5 ml.
Analysis of receptor solution and extractions from epidermis and dermis were performed by RP-HPLC.
Receptor solution were analyzed without any further treatment.
Tissue samples were treated according to the following procedure: • 1. […] Vortex the sample and sonicate for 30 minutes in cold water (2-8° C. add ice to the bath). • 3. The samples should then be centrifuged at 14000 rpm and transferred to HPLC vial for analysis.

[3] = Solubility of the active ingredients in aqueous GZ17-6.02 solutions; type: physicochemical; conditions: aqueous GZ17-6.02 solution
Excerpt: By comparison, in one study, the solubility of the active ingredients in aqueous GZ17-6.02 solutions (not the lipid crystalline formulation) was first analyzed. […]

[4] = Solubility in receptor solution (PBS with 0.1% Brij); type: physicochemical; conditions: aqueous with cosolvent or surfactant or cyclodextrin, thermodynamic from solid
Description: Excess of GZ17-6.02 were added to the solvent, which were stirred for 1 hour and incubated at 32° C. for 24 h. Thereafter the sample was centrifuged or filtrated and the solubility determined by HPLC method DM.216.03[4] or DM.217.01 [5]. One sample was prepared and duplicate injections were analysed.

[5] = IVPT on pig skin, finite dose 10 mg/cm^2, 3% and 6% GZ17-6.02 monoglyceride cream; conditions: after 24 h
Description: Wash the membrane six times with 0.5 ml PBS buffer and collect the PBS in the wash fraction tubes. • 2. Dismount the cells and gently clean the membranes with PBS moisture tops. Collect the tops in the wash fraction tubes. • 3. Gently separate […] from dermis by peeling the membrane and collect in a test tube. • 4. Cut out the cell flange (the unexposed skin) with a 10 mm punch and collect the material in a test tube. • 5. […] The samples should then be centrifuged at 14000 rpm and transferred to HPLC vial for analysis.

[6] = after application of 6% GZ17-6.02 cream
[7] = PBS buffer with 0.1% Brij, 32° C., 24 h, read-out: Solubility in receptor solution
[8] = pig, 24 h, 6 % GZ17-6.02 in cream
[9] = same experimental methods (FIG. 6), read-out: IC50

SMILES: COc1ccc2c(c1)[nH]c1c(C)nccc12 [Harmine, 7-methoxy-1-methyl-9H-pyrido[3,4-b]indole]
IC50 ([1]; read-out: IC50 as Monotherapy): 2.55 µg/mL and 12 µM
Amount adsorbed into dermis [2, 6]: 38.9 ± 24.4 µg/g
Amount adsorbed into epidermis [2, 6]: 585.5 ± 227.8 µg/g
Maximum obtained concentration in the receptor solution ([2]; previous IVPT experiment): 0.13 µg/mL
Solubility at 2-8° C. ([3]; pH 4.3): >1.56 % w/w
Solubility at 25° C. ([3]; pH 4.3): >1.56 % w/w
Solubility at 2-8° C. ([3]; pH 7.0): 0.0014 % w/w
Solubility at 25° C. ([3]; pH 7.0): 0.0034 % w/w
solubility at 24 h [4, 7]: 50 µg/mL (≈ 236 µM)

Maximum obtained concentration in the receptor solution ([2]; pig, 6 % GZ17-6.02 in cream): 0 µg/mL
Amount adsorbed into dermis [2, 8]: 0.40 ± 0.23 µg/g
Amount adsorbed into epidermis [2, 8]: 3.82 ± 1.88 µg/g
solubility at 24 h ([4]; 32 °C): 10 µg/mL (≈ 27.1 µM)
SMILES: COc1cc(/C=C/C(=O)CC(=O)/C=C/c2ccc(O)c(OC)c2)ccc1O [Curcumin, 1,7-bis(4-hydroxy3-methoxyphenyl)-1,6-heptadiene-3,5-dione]
IC50 as Monotherapy ([1]; API alone): 0.736 µg/mL (≈ 2 µM)
IC50 ([1]; API alone, read-out: IC50 as Monotherapy): 0.774 µg/mL and 2 µM

SMILES: O=c1[nH]cc(F)c(=O)[nH]1 [5-Fluorouracil, reference compound]
IC50 [1, 9]: 4.8 µM

SMILES: COc1ccc(C=O)cc1O [Isovanillin]
Cumulative amount permeated ([2]; 2 h): 35.0 ± 20.7 μg/cm^2
Cumulative amount permeated ([2]; 4 h): 103.4 ± 47.6 μg/cm^2
Cumulative amount permeated ([2]; 6 h): 169.3 ± 66.1 μg/cm^2
Cumulative amount permeated ([2]; 8 h): 209.5 ± 74.4 μg/cm^2
Cumulative amount permeated ([2]; 24 h): 208 μg/cm^2 and 207.9 ± 95.2 μg/cm^2
Applied dose permeated when deviation from the linear regime (depletion) occurs ([2]; after 6-8 hours): about 1.5%
Amount adsorbed into dermis [2, 6]: 29.4 ± 19.3 µg/g
Amount adsorbed into epidermis [2, 6]: 181.2 ± 118.3 µg/g
Systemic adsorption ([2]; extrapolated from in vitro 24 h permeation to a treated area of 25 cm^2): 5.2 mg
Maximum obtained concentration in the receptor solution ([2]; previous IVPT experiment): 18 µg/mL
Applied dose permeated the skin [5]: about 2%
Solubility at 2-8° C. ([3]; pH 4.3): 0.27 % w/w
Solubility at 25° C. ([3]; pH 4.3): 0.57 % w/w
Solubility at 2-8° C. ([3]; pH 7.0): 0.18 % w/w
Solubility at 25° C. ([3]; pH 7.0): 0.28 % w/w
solubility at 24 h [4, 7]: 3960 ± 30 µg/mL (≈ 26000 µM)

SMILES: O=C(O)Cc1ccccc1Nc1c(Cl)cccc1Cl [diclofenac, reference compound]
IC50 [1, 9]: 602 µM
